Measured values reported in ChEMBL document CHEMBL1201862, “PubChem BioAssay data set” (2004).
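Five compound concentrations were applied to cells in 96-well plates for 48 hours; endpoints were derived by simple linear interpolation of the resulting dose-response curve. Abbreviation: GI50, concentration required for 50% inhibition of growth.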 Active and inactive are the calls of the source. No stated cut-off is given here; in the data, active = GI50 up to about 1.1 µM and inactive = higher.

What was measured:
Assay in all cases: inhibition of tumour cell growth, NCI panel, 48 h
OVCAR-4 = tested on: OVCAR-4
SK-MEL-5 = tested on: SK-MEL-5
ACHN = tested on: ACHN
MDA-N = tested on: MDA-N
CCRF-CEM = tested on: CCRF-CEM
SF-295 = tested on: SF-295
U-251 = tested on: U-251
Hs-578T = tested on: Hs-578T
NCI/ADR-RES = tested on: NCI/ADR-RES
DU-145 = tested on: DU-145
SF-268 = tested on: SF-268
Malme-3M = tested on: Malme-3M
SNB-19 = tested on: SNB-19
SK-MEL-28 = tested on: SK-MEL-28
OVCAR-5 = tested on: OVCAR-5
RXF 393 = tested on: RXF 393
SW-620 = tested on: SW-620
NCI-H522 = tested on: NCI-H522
SR = tested on: SR
CAKI-1 = tested on: CAKI-1
HOP-62 = tested on: HOP-62
MOLT-4 = tested on: MOLT-4
IGROV-1 = tested on: IGROV-1
A549 = tested on: A549
NCI-H460 = tested on: NCI-H460
LOX IMVI = tested on: LOX IMVI
HL-60 = tested on: HL-60
786-0 = tested on: 786-0
SF-539 = tested on: SF-539
HOP-92 = tested on: HOP-92
HCT-15 = tested on: HCT-15
HT-29 = tested on: HT-29
TK-10 = tested on: TK-10
SK-MEL-2 = tested on: SK-MEL-2
EKVX = tested on: EKVX
UACC-62 = tested on: UACC-62
UACC-257 = tested on: UACC-257
RPMI-8226 = tested on: RPMI-8226
PC-3 = tested on: PC-3
MDA-MB-231 = tested on: MDA-MB-231
MDA-MB-435 = tested on: MDA-MB-435
SN12C = tested on: SN12C
OVCAR-3 = tested on: OVCAR-3
KM12 = tested on: KM12
NCI-H23 = tested on: NCI-H23
K562 = tested on: K562
BT-549 = tested on: BT-549
SK-OV-3 = tested on: SK-OV-3
HCT-116 = tested on: HCT-116
OVCAR-8 = tested on: OVCAR-8
M14 = tested on: M14
T47D = tested on: T47D
COLO 205 = tested on: COLO 205
SNB-75 = tested on: SNB-75
UO-31 = tested on: UO-31
MCF7 = tested on: MCF7
A498 = tested on: A498
HCC 2998 = tested on: HCC 2998
NCI-H226 = tested on: NCI-H226

C=C1c2ccccc2C(=O)c2c1c1c(C(=O)OC)c(O)ccc1n2Cc1ccccc1
GI50 (OVCAR-4): 0.558 µM (active)
GI50 (SK-MEL-5): 0.7 µM (active)
GI50 (ACHN): 0.454 µM (active)
GI50 (MDA-N): 0.32 µM (active)
GI50 (CCRF-CEM): 0.203 µM (active)
GI50 (SF-295): 0.574 µM (active)
GI50 (U-251): 0.333 µM (active)
GI50 (Hs-578T): 0.297 µM (active)
GI50 (NCI/ADR-RES): 0.235 µM (active)
GI50 (DU-145): 0.242 µM (active)
GI50 (SF-268): 0.175 µM (active)
GI50 (Malme-3M): 0.445 µM (active)
GI50 (SNB-19): 0.35 µM (active)
GI50 (SK-MEL-28): 0.31 µM (active)
GI50 (OVCAR-5): 1.1 µM (active)
GI50 (RXF 393): 0.267 µM (active)
GI50 (SW-620): 0.342 µM (active)
GI50 (NCI-H522): 0.237 µM (active)
GI50 (SR): 0.132 µM (active)
GI50 (CAKI-1): 0.407 µM (active)
GI50 (HOP-62): 0.516 µM (active)
GI50 (MOLT-4): 0.219 µM (active)
GI50 (IGROV-1): 0.234 µM (active)
GI50 (A549): 1.11 µM (active)
GI50 (NCI-H460): 0.908 µM (active)
GI50 (LOX IMVI): 0.297 µM (active)
GI50 (HL-60): 0.265 µM (active)
GI50 (786-0): 0.197 µM (active)
GI50 (SF-539): 0.228 µM (active)
GI50 (HOP-92): < 0.01 µM (active)
GI50 (HCT-15): 0.232 µM
GI50 (HT-29): 0.163 µM (active)
GI50 (TK-10): 0.459 µM (active)
GI50 (SK-MEL-2): 0.817 µM (active)
GI50 (EKVX): 0.9 µM (active)
GI50 (UACC-62): 0.284 µM (active)
GI50 (UACC-257): 1.71 µM (inactive)
GI50 (RPMI-8226): 0.175 µM (active)
GI50 (PC-3): 0.437 µM (active)
GI50 (MDA-MB-231): 0.355 µM (active)
GI50 (MDA-MB-435): 0.255 µM (active)
GI50 (SN12C): 0.312 µM (active)
GI50 (OVCAR-3): 0.151 µM (active)
GI50 (KM12): 0.459 µM (active)
GI50 (NCI-H23): 0.713 µM (active)
GI50 (K562): 0.323 µM (active)
GI50 (BT-549): 0.585 µM (active)
GI50 (SK-OV-3): 0.346 µM (active)
GI50 (HCT-116): 0.557 µM (active)
GI50 (OVCAR-8): 0.245 µM (active)
GI50 (M14): 0.314 µM (active)
GI50 (T47D): 0.653 µM (active)
GI50 (COLO 205): 1.97 µM (inactive)
GI50 (SNB-75): 0.264 µM (active)
GI50 (UO-31): 0.512 µM (active)
GI50 (MCF7): 0.249 µM (active)

CC(C)(C)OC(=O)N1CCC(C(=O)O)CC1
GI50 (OVCAR-4): > 100 µM (inactive)
GI50 (SK-MEL-5): > 100 µM (inactive)
GI50 (ACHN): > 100 µM (inactive)
GI50 (MDA-N): > 100 µM (inactive)
GI50 (CCRF-CEM): > 100 µM (inactive)
GI50 (SF-295): > 100 µM (inactive)
GI50 (U-251): > 100 µM (inactive)
GI50 (Hs-578T): > 100 µM (inactive)
GI50 (NCI/ADR-RES): > 100 µM (inactive)
GI50 (DU-145): > 100 µM (inactive)
GI50 (SF-268): > 100 µM (inactive)
GI50 (Malme-3M): > 100 µM (inactive)
GI50 (SNB-19): > 100 µM (inactive)
GI50 (SK-MEL-28): > 100 µM (inactive)
GI50 (OVCAR-5): > 100 µM (inactive)
GI50 (SW-620): > 100 µM (inactive)
GI50 (NCI-H522): > 100 µM (inactive)
GI50 (SR): > 100 µM (inactive)
GI50 (CAKI-1): > 100 µM (inactive)
GI50 (HOP-62): > 100 µM (inactive)
GI50 (MOLT-4): > 100 µM (inactive)
GI50 (IGROV-1): > 100 µM (inactive)
GI50 (A549): > 100 µM (inactive)
GI50 (NCI-H460): > 100 µM (inactive)
GI50 (LOX IMVI): > 100 µM (inactive)
GI50 (HL-60): > 100 µM (inactive)
GI50 (786-0): > 100 µM (inactive)
GI50 (SF-539): > 100 µM (inactive)
GI50 (HOP-92): > 100 µM (inactive)
GI50 (A498): > 100 µM (inactive)
GI50 (HCT-15): > 100 µM
GI50 (HT-29): > 100 µM (inactive)
GI50 (TK-10): > 100 µM (inactive)
GI50 (SK-MEL-2): > 100 µM (inactive)
GI50 (EKVX): > 100 µM (inactive)
GI50 (UACC-62): > 100 µM (inactive)
GI50 (UACC-257): > 100 µM (inactive)
GI50 (RPMI-8226): > 100 µM (inactive)
GI50 (PC-3): > 100 µM (inactive)
GI50 (MDA-MB-231): > 100 µM (inactive)
GI50 (MDA-MB-435): > 100 µM (inactive)
GI50 (SN12C): > 100 µM (inactive)
GI50 (OVCAR-3): > 100 µM (inactive)
GI50 (KM12): > 100 µM (inactive)
GI50 (NCI-H23): > 100 µM (inactive)
GI50 (BT-549): > 100 µM (inactive)
GI50 (HCT-116): > 100 µM (inactive)
GI50 (OVCAR-8): > 100 µM (inactive)
GI50 (M14): > 100 µM (inactive)
GI50 (T47D): > 100 µM (inactive)
GI50 (HCC 2998): > 100 µM (inactive)
GI50 (COLO 205): > 100 µM (inactive)
GI50 (SNB-75): > 100 µM (inactive)
GI50 (UO-31): > 100 µM (inactive)
GI50 (MCF7): > 100 µM (inactive)

CC[C@@H]1CSC(/C=C/C2OC3OC(C)(C)OC3C3OC(C)(C)OC23)=N1 (stereo partly drawn)
GI50 (OVCAR-4): 4.39 µM (inactive)
GI50 (SK-MEL-5): 6.67 µM (inactive)
GI50 (ACHN): 9.44 µM (inactive)
GI50 (MDA-N): 4.5 µM (inactive)
GI50 (SF-295): 18.6 µM (inactive)
GI50 (U-251): 13.6 µM (inactive)
GI50 (Hs-578T): 17.9 µM (inactive)
GI50 (NCI/ADR-RES): 12.7 µM (inactive)
GI50 (DU-145): 2.27 µM (inactive)
GI50 (SF-268): 6.03 µM (inactive)
GI50 (Malme-3M): 10.9 µM (inactive)
GI50 (SNB-19): 20.4 µM (inactive)
GI50 (NCI-H226): 16.4 µM (inactive)
GI50 (SK-MEL-28): 11.9 µM (inactive)
GI50 (OVCAR-5): 7.91 µM (inactive)
GI50 (RXF 393): 3.4 µM (inactive)
GI50 (SW-620): 3.22 µM (inactive)
GI50 (NCI-H522): 3.18 µM (inactive)
GI50 (SR): 3.89 µM (inactive)
GI50 (CAKI-1): 11.1 µM (inactive)
GI50 (HOP-62): 22.9 µM (inactive)
GI50 (MOLT-4): 4.54 µM (inactive)
GI50 (IGROV-1): 10.3 µM (inactive)
GI50 (A549): 22.5 µM (inactive)
GI50 (NCI-H460): 21.5 µM (inactive)
GI50 (LOX IMVI): 6.53 µM (inactive)
GI50 (HL-60): 2.34 µM (inactive)
GI50 (786-0): 3.98 µM (inactive)
GI50 (SF-539): 4.84 µM (inactive)
GI50 (HOP-92): 3.7 µM (inactive)
GI50 (HCT-15): 3.75 µM
GI50 (HT-29): 3.94 µM (inactive)
GI50 (TK-10): 3.78 µM (inactive)
GI50 (SK-MEL-2): 14.1 µM (inactive)
GI50 (EKVX): 11.8 µM (inactive)
GI50 (UACC-62): 13.9 µM (inactive)
GI50 (UACC-257): 10.1 µM (inactive)
GI50 (RPMI-8226): 5.78 µM (inactive)
GI50 (PC-3): 8.2 µM (inactive)
GI50 (MDA-MB-231): 12.4 µM (inactive)
GI50 (MDA-MB-435): 4.15 µM (inactive)
GI50 (SN12C): 11.1 µM (inactive)
GI50 (OVCAR-3): 4.97 µM (inactive)
GI50 (KM12): 13.6 µM (inactive)
GI50 (NCI-H23): 5.05 µM (inactive)
GI50 (K562): 3.91 µM (inactive)
GI50 (BT-549): 3.58 µM (inactive)
GI50 (SK-OV-3): 35.8 µM (inactive)
GI50 (HCT-116): 3.5 µM (inactive)
GI50 (OVCAR-8): 4.49 µM (inactive)
GI50 (M14): 10 µM (inactive)
GI50 (T47D): 4.25 µM (inactive)
GI50 (HCC 2998): 3.03 µM (inactive)
GI50 (COLO 205): 5.32 µM (inactive)
GI50 (SNB-75): 15 µM (inactive)
GI50 (UO-31): 10.8 µM (inactive)
GI50 (MCF7): 4.58 µM (inactive)
